Measurements as given in US20250099434A1, “METHODS OF TREATING AMYLOID RELATED BRAIN DISORDERS USING NOVEL COMPOUNDS AND ANTIBODIES” (T3D Therapeutics, Inc., priority 2022, published 2025).

Tests used:
[1] = system: patients with mild-to-moderate Alzheimer's disease (AD); experiment: BOLD fMRI (task-free fMRI) clinical study, baseline vs end of treatment; type: in vivo, human
Protocol: The majority were non-Hispanic and of white origin.
T3D Therapeutics completed an exploratory analysis of the Phase 2A non-placebo-controlled feasibility study to assess the therapeutic effects of T3D959 in patients with mild-to-moderate Alzheimer's disease (AD) via task-free functional magnetic resonance imaging (tf-fMRI). A total of 34 subjects participated and were split into 4 groups that took different amounts of T3D959 over the course of the study: 3 mg, 10 mg, 30 mg, and 90 mg. A baseline tf-fMRI scan was obtained prior to treatment and another two weeks after. Sixteen tf-fMRI metrics were calculated at each time point and summarized for each patient group to assess the therapeutic effect of T3D959.
The T3D clinical trial investigated the following metrics: • 1. Goodness of Fit of the subject's default mode network regions compared to those of an elderly control group. • 2. The correlation strength between the hippocampus and precuneus. • 3. The global efficiency calculated from 11 pre-defined default mode network regions. • 4. The global efficiency calculated from 90 pre-defined cerebral regions based on the automated anatomical labeling atlas. • 5. The amplitude of low frequency fluctuations (ALFF) and […] of low frequency fluctuations (fALFF) from the right posterior cingulate cortex (PCC) and precuneus (PreC) in the low frequency oscillations (LFO) range (0.01-0.08 Hz). • 6. The ALFF and fALFF from the left PCC and PreC in the LFO range. • 7. The regional homogeneity (ReHo) in the right PCC and PreC. • 8. The ReHo in the left PCC and PreC. • 9. […] The ALFF and fALFF from the left IPL in the LFO range. • 11. The ReHo in the right IPL • 12. The ReHo in the left IPL.

[2] = biological target: P-glycoprotein (P-gp) (Homo sapiens, UniProt P08183); experiment: P-gp substrate assessment (Caco-2, verapamil)
P-glycoprotein (P-gp), sequence (P08183 whole entry): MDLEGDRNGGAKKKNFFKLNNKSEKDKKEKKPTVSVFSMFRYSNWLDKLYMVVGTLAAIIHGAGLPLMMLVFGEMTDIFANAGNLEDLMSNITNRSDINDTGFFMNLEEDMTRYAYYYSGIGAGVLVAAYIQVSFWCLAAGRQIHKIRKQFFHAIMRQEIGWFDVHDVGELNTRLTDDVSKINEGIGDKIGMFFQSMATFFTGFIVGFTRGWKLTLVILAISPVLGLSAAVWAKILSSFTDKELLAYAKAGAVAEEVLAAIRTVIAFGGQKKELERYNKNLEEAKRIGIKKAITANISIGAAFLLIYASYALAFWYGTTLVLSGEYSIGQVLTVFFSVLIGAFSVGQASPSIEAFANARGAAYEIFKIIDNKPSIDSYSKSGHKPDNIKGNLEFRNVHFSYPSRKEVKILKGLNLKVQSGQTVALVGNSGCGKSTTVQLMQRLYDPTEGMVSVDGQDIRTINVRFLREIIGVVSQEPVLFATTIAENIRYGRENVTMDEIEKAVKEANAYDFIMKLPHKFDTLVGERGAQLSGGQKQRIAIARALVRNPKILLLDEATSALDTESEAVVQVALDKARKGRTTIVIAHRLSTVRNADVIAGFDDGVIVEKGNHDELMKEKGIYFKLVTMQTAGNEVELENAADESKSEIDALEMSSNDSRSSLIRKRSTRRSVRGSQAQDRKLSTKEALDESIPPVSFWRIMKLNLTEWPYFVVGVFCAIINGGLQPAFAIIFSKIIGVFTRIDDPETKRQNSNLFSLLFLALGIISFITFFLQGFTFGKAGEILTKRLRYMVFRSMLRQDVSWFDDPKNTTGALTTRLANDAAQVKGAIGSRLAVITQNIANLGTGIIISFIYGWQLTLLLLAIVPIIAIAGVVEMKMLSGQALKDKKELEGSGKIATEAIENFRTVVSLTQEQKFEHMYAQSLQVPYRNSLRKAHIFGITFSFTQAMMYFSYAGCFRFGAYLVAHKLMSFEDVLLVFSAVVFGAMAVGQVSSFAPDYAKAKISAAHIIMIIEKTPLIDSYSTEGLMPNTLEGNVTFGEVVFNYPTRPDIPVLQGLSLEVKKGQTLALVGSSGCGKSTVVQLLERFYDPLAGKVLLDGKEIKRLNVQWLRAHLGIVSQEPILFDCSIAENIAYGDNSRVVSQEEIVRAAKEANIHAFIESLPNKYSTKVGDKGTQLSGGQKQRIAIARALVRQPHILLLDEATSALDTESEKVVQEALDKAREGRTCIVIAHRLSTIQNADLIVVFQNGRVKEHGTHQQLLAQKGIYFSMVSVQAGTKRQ

[3] = biological target: T1, human PPARγ (Homo sapiens, UniProt P37231); experiment: Human PPAR activation, transient transfection in CV-1 cells (gamma subtype); type: cell-based
T1 construct: expressed in transfected cells; host or cells: CV-1 cells
T1 sequence (P37231 1-505): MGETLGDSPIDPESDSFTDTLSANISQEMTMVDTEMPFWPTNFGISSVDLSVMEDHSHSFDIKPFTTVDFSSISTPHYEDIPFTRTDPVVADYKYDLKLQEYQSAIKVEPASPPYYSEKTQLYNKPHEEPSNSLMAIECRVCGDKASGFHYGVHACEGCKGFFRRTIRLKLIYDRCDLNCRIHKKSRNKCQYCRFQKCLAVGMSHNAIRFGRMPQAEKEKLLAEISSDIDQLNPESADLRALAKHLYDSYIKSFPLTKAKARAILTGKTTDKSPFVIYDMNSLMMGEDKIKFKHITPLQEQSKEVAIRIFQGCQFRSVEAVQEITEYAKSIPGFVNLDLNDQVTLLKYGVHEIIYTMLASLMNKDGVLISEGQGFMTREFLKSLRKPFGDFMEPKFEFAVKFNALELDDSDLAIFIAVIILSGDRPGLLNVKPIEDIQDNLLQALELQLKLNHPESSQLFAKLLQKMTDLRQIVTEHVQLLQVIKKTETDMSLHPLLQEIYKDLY
Excerpt: PPAR receptor agonist activity may be determined by conventional screening methods known to the skilled in the art. For example, methods described in U.S. Patent Application Publication No. 2007/0054907, 2008/0262047 and U.S. Pat. No. 7,314,879, which are incorporated by reference in their entireties.
The table summarize the results of studies performed in transfected CV-1 cells with three different lots of Compound of Example 11. […].

## CCc1oc(-c2ccc(OC)cc2)nc1CCOc1ccc2c(c1)CC[C@H]2CC(=O)[O-].[Na+] [Example 11, Sodium (S)-2-(5-(2-(5-ethyl-2-(4-methoxyphenyl)oxazol-4-yl)ethoxy)-2,3-dihydro-1H-inden-1-yl)acetate]
[1]; 3 mg
  ALFF-IIPL, Change from Baseline EOT, Mean: −0.0635
  ALFF-IIPL, Change from Baseline EOT, Median: −0.0393
  ALFF-rIPL, Change from Baseline EOT, Mean: −0.0493
  ALFF-rIPL, Change from Baseline EOT, Median: −0.0587
  ReHo-IIPL, Change from Baseline EOT, Mean: −0.0694
  ReHo-IIPL, Change from Baseline EOT, Median: −0.0822
  ReHo-IPPC-PreC, Change from Baseline EOT, Mean: −0.0665
  ReHo-IPPC-PreC, Change from Baseline EOT, Median: −0.0428
  ReHo-rIPL, Change from Baseline EOT, Mean: −0.0694
  ReHo-rIPL, Change from Baseline EOT, Median: −0.0822
  ReHo-rPPC-Prec, Change from Baseline EOT, Mean: −0.0390
  ReHo-rPPC-Prec, Change from Baseline EOT, Median: −0.0081
  fALFF-IIPL, Change from Baseline EOT, Mean: −0.0296
  fALFF-IIPL, Change from Baseline EOT, Median: −0.0311
  fALFF-IPPC-PreC, Change from Baseline EOT, Mean: 0.0121
  fALFF-IPPC-PreC, Change from Baseline EOT, Median: 0.0019
  fALFF-rIPL, Change from Baseline EOT, Mean: −0.0342
  fALFF-rIPL, Change from Baseline EOT, Median: −0.0327
  fALFF-rPPC-PreC, Change from Baseline EOT, Mean: −0.0080
  fALFF-rPPC-PreC, Change from Baseline EOT, Median: −0.0229
[1]; 10 mg
  ALFF-IIPL, Change from Baseline EOT, Mean: 0.0104
  ALFF-IIPL, Change from Baseline EOT, Median: 0.0273
  ALFF-rIPL, Change from Baseline EOT, Mean: −0.0276
  ALFF-rIPL, Change from Baseline EOT, Median: −0.0278
  ReHo-IIPL, Change from Baseline EOT, Mean: 0.0147
  ReHo-IIPL, Change from Baseline EOT, Median: −0.0201
  ReHo-IPPC-PreC, Change from Baseline EOT, Mean: 0.0237
  ReHo-IPPC-PreC, Change from Baseline EOT, Median: 0.0523
  ReHo-rIPL, Change from Baseline EOT, Mean: 0.0147
  ReHo-rIPL, Change from Baseline EOT, Median: −0.0201
  ReHo-rPPC-Prec, Change from Baseline EOT, Mean: −0.0663
  ReHo-rPPC-Prec, Change from Baseline EOT, Median: 0.0153
  fALFF-IIPL, Change from Baseline EOT, Mean: 0.0164
  fALFF-IIPL, Change from Baseline EOT, Median: 0.0097
  fALFF-IPPC-PreC, Change from Baseline EOT, Mean: 0.0068
  fALFF-IPPC-PreC, Change from Baseline EOT, Median: −0.0068
  fALFF-rIPL, Change from Baseline EOT, Mean: 0.0061
  fALFF-rIPL, Change from Baseline EOT, Median: 0.0096
  fALFF-rPPC-PreC, Change from Baseline EOT, Mean: 0.0084
  fALFF-rPPC-PreC, Change from Baseline EOT, Median: −0.0028
[1]; 30 mg
  ALFF-IIPL, Change from Baseline EOT, Mean: −0.0102
  ALFF-IIPL, Change from Baseline EOT, Median: −0.0031
  ALFF-rIPL, Change from Baseline EOT, Mean: 0.0346
  ALFF-rIPL, Change from Baseline EOT, Median: 0.0332
  ReHo-IIPL, Change from Baseline EOT, Mean: −0.0249
  ReHo-IIPL, Change from Baseline EOT, Median: −0.0135
  ReHo-IPPC-PreC, Change from Baseline EOT, Mean: −0.0369
  ReHo-IPPC-PreC, Change from Baseline EOT, Median: −0.0398
  ReHo-rIPL, Change from Baseline EOT, Mean: −0.0249
  ReHo-rIPL, Change from Baseline EOT, Median: −0.0135
  ReHo-rPPC-Prec, Change from Baseline EOT, Mean: −0.0895
  ReHo-rPPC-Prec, Change from Baseline EOT, Median: −0.1176
  fALFF-IIPL, Change from Baseline EOT, Mean: −0.0107
  fALFF-IIPL, Change from Baseline EOT, Median: −0.0034
  fALFF-IPPC-PreC, Change from Baseline EOT, Mean: −0.0132
  fALFF-IPPC-PreC, Change from Baseline EOT, Median: −0.0141
  fALFF-rIPL, Change from Baseline EOT, Mean: 0.0023
  fALFF-rIPL, Change from Baseline EOT, Median: 0.0001
  fALFF-rPPC-PreC, Change from Baseline EOT, Mean: −0.0007
  fALFF-rPPC-PreC, Change from Baseline EOT, Median: −0.0133
[1]; 90 mg
  ALFF-IIPL, Change from Baseline EOT, Mean: −0.0401
  ALFF-IIPL, Change from Baseline EOT, Median: −0.0560
  ALFF-rIPL, Change from Baseline EOT, Mean: −0.1089
  ALFF-rIPL, Change from Baseline EOT, Median: −0.0671
  ReHo-IIPL, Change from Baseline EOT, Mean: −0.0062
  ReHo-IIPL, Change from Baseline EOT, Median: −0.0121
  ReHo-IPPC-PreC, Change from Baseline EOT, Mean: 0.0194
  ReHo-IPPC-PreC, Change from Baseline EOT, Median: 0.0566
  ReHo-rIPL, Change from Baseline EOT, Mean: −0.0062
  ReHo-rIPL, Change from Baseline EOT, Median: −0.0121
  ReHo-rPPC-Prec, Change from Baseline EOT, Mean: −0.0041
  ReHo-rPPC-Prec, Change from Baseline EOT, Median: 0.0177
  fALFF-IIPL, Change from Baseline EOT, Mean: −0.0350
  fALFF-IIPL, Change from Baseline EOT, Median: −0.0211
  fALFF-IPPC-PreC, Change from Baseline EOT, Mean: −0.0167
  fALFF-IPPC-PreC, Change from Baseline EOT, Median: −0.0166
  fALFF-rIPL, Change from Baseline EOT, Mean: −0.0395
  fALFF-rIPL, Change from Baseline EOT, Median: −0.0313
  fALFF-rPPC-PreC, Change from Baseline EOT, Mean: −0.0118
  fALFF-rPPC-PreC, Change from Baseline EOT, Median: 0.0039
[2]
  substrate for P-gp: not a substrate for P-gp
[3]
  Peak effect PPARγ: 29.49
